Laboratory results as given in PMC11538131, “Degradation mechanism of difructose dianhydride III in Blautia species” (Applied Microbiology and Biotechnology, 2024).

Target: T1, GH32 β-D-fructofuranosidase BBDE_1523 (Bifidobacterium dentium, UniProt D2Q5I2)
T1 construct: gene fosC; cloned and expressed as BpDFA-IIIase (pET23a, C-terminal His-tag, E. coli BL21(DE3), TALON)
T1 sequence (D2Q5I2 1-518): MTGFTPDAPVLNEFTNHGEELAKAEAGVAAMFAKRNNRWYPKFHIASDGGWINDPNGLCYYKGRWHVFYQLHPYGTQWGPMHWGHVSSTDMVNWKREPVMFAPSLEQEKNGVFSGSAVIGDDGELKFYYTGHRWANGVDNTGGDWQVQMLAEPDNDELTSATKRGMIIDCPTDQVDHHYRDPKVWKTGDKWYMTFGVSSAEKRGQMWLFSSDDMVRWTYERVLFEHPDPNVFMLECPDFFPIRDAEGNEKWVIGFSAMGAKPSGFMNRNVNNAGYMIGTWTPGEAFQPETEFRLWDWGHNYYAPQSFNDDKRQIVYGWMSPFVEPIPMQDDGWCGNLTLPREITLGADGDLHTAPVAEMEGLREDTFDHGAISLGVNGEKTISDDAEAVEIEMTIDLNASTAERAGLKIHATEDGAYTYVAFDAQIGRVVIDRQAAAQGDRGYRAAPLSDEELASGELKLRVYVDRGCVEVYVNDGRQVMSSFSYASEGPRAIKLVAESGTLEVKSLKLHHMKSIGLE
Assay: TLC and HPAEC-PAD
Assay type: biochemical
Details: 50 mM acetate pH 6.0, 37 °C, overnight; together with BpDFA-IIIase

Compound: OC[C@H]1O[C@@](CO)(OCC2(O)OC[C@@H](O)[C@@H](O)[C@@H]2O)[C@@H](O)[C@@H]1O (stereo partly shown) [inulobiose]
- TLC and HPAEC-PAD: DFA-III was completely hydrolyzed into D-fructose via inulobiose
